Experimental data published in US20080125454A1, “Methods and Compositions for Treatment of Scleritis and Related Disorders” (Wyeth, priority 2006, published 2008).

Target: T1, P-selectin binding to P-selectin glycoprotein ligand-1 (PSGL-1) (Homo sapiens, UniProt P16109)
T1 construct: truncated form of human P-selectin comprised of the lectin and EGF domains (P-LE)
T1 sequence (P16109 42-198): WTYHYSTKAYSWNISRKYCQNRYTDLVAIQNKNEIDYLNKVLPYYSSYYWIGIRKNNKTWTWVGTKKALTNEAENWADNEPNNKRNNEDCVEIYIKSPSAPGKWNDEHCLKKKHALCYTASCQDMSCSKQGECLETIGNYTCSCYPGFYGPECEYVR
Test: Biacore inhibition of P-selectin binding to PSGL-1 (P-LE binding to immobilized SGP-3)
Conditions: 1 mM; read-out: percent inhibition of binding (positive control)
Protocol: Compounds of the present teachings can be assayed for selectin inhibitory activity using any of the procedures known in the art. One convenient procedure is the determination of IC50 values for inhibition of P-selectin binding to P-selectin glycoprotein ligand-1 (PSGL-1) using a Biacore instrument.
The Biacore 3000 is an instrument that uses surface plasmon resonance to detect binding of a solution phase analyte to an immobilized ligand on a sensor chip surface. The analyte sample is injected under flow using a microfluidic system. Binding of analyte to ligand causes a change in the angle of refracted light at the surface of the sensor chip, measured by the Biacore instrument in resonance units (RUs).
SGP-3 is a purified sulfoglycopeptide form of human PSGL-1 that contains the P-selectin binding determinants (See Somers et al., 2000, Cell 103, 467-479). […]
The Biacore assay measures the signal in RU produced by binding of P-LE to SGP-3 in the presence and absence of inhibitors. Percent inhibition of binding is calculated by dividing the inhibited signal by the uninhibited signal subtracting this value from one then multiplying by one hundred. […] The data from this titration are plotted, RU values vs. concentration, and the IC50 is determined by extrapolation from the plot. […]

Which inhibition at 1000 µM does the source give for `CC1(C)[C@@H](O[C@H]2O[C@H](C(=O)O)[C@@H](O)[C@H](O)[C@H]2O[C@@H]2O[C@H](C(=O)O)[C@@H](O)[C@H](O)[C@H]2O)CC[C@]2(C)[C@H]3C(=O)C=C4[C@@H]5C[C@@](C)(C(=O)O)CC[C@]5(C)CC[C@@]4(C)[C@]3(C)CC[C@@H]12` [Glycyrrhizin] here?
The inhibition at 1000 µM was 50%.
